In the NIST ThermoML archive (doi:10.1021/je800876t):
Numbers after ± are expanded uncertainties.

Test: molar heat capacity at constant pressure
Details: 101.33 kPa, Crystal, Vacuum adiabatic calorimetry

Compound: O=C([O-])c1ccccc1.O=C([O-])c1ccccc1.[Ba+2] [barium benzoate]
- molar heat capacity at constant pressure (77.78 K): 109.64 ± 0.68 J/K/mol
- molar heat capacity at constant pressure (79.5 K): 111.79 ± 0.7 J/K/mol
- molar heat capacity at constant pressure (82.08 K): 114.77 ± 0.71 J/K/mol
- molar heat capacity at constant pressure (84.57 K): 117.57 ± 0.73 J/K/mol
- molar heat capacity at constant pressure (86.98 K): 119.65 ± 0.74 J/K/mol
- molar heat capacity at constant pressure (89.39 K): 121.92 ± 0.76 J/K/mol
- molar heat capacity at constant pressure (91.65 K): 124.31 ± 0.78 J/K/mol
- molar heat capacity at constant pressure (93.86 K): 126.6 ± 0.79 J/K/mol
- molar heat capacity at constant pressure (96.1 K): 128.79 ± 0.81 J/K/mol
- molar heat capacity at constant pressure (98.25 K): 130.89 ± 0.82 J/K/mol
- molar heat capacity at constant pressure (100.3 K): 132.67 ± 0.83 J/K/mol
- molar heat capacity at constant pressure (102.4 K): 134.86 ± 0.84 J/K/mol
- molar heat capacity at constant pressure (104.4 K): 137.21 ± 0.86 J/K/mol
- molar heat capacity at constant pressure (106.5 K): 139.25 ± 0.87 J/K/mol
- molar heat capacity at constant pressure (108.3 K): 141.18 ± 0.88 J/K/mol
- molar heat capacity at constant pressure (110.3 K): 142.99 ± 0.89 J/K/mol
- molar heat capacity at constant pressure (112.2 K): 144.86 ± 0.9 J/K/mol
- molar heat capacity at constant pressure (114.1 K): 146.37 ± 0.91 J/K/mol
- molar heat capacity at constant pressure (115.9 K): 148.24 ± 0.92 J/K/mol
- molar heat capacity at constant pressure (117.8 K): 150.2 ± 0.93 J/K/mol
- molar heat capacity at constant pressure (119.6 K): 152.24 ± 0.95 J/K/mol
- molar heat capacity at constant pressure (122.4 K): 154.37 ± 0.96 J/K/mol
- molar heat capacity at constant pressure (125.9 K): 157.49 ± 0.98 J/K/mol
- molar heat capacity at constant pressure (128.8 K): 160.12 ± 0.99 J/K/mol
- molar heat capacity at constant pressure (131.6 K): 162.83 ± 1 J/K/mol
- molar heat capacity at constant pressure (134.5 K): 165.78 ± 1 J/K/mol
- molar heat capacity at constant pressure (137.4 K): 168.03 ± 1 J/K/mol
- molar heat capacity at constant pressure (140.3 K): 170.89 ± 1.1 J/K/mol
- molar heat capacity at constant pressure (143.1 K): 173.54 ± 1.1 J/K/mol
- molar heat capacity at constant pressure (146.1 K): 176.75 ± 1.1 J/K/mol
- molar heat capacity at constant pressure (148.9 K): 178.82 ± 1.1 J/K/mol
- molar heat capacity at constant pressure (152.8 K): 182.27 ± 1.1 J/K/mol
- molar heat capacity at constant pressure (154.7 K): 184.19 ± 1.1 J/K/mol
- molar heat capacity at constant pressure (157.6 K): 186.99 ± 1.1 J/K/mol
- molar heat capacity at constant pressure (160.4 K): 189.18 ± 1.2 J/K/mol
- molar heat capacity at constant pressure (163.4 K): 191.95 ± 1.2 J/K/mol
- molar heat capacity at constant pressure (166.3 K): 194.11 ± 1.2 J/K/mol
- molar heat capacity at constant pressure (169.1 K): 197.21 ± 1.2 J/K/mol
- molar heat capacity at constant pressure (172 K): 199.98 ± 1.2 J/K/mol
- molar heat capacity at constant pressure (174.9 K): 202.6 ± 1.2 J/K/mol
- molar heat capacity at constant pressure (177.8 K): 204.53 ± 1.3 J/K/mol
- molar heat capacity at constant pressure (180.6 K): 207.13 ± 1.3 J/K/mol
- molar heat capacity at constant pressure (184.7 K): 211.18 ± 1.3 J/K/mol
- molar heat capacity at constant pressure (188.6 K): 214.68 ± 1.3 J/K/mol
- molar heat capacity at constant pressure (191.5 K): 216.93 ± 1.3 J/K/mol
- molar heat capacity at constant pressure (194.4 K): 219.24 ± 1.4 J/K/mol
- molar heat capacity at constant pressure (197.2 K): 221.9 ± 1.4 J/K/mol
- molar heat capacity at constant pressure (200.2 K): 224.02 ± 1.4 J/K/mol
- molar heat capacity at constant pressure (203.1 K): 226.01 ± 1.4 J/K/mol
- molar heat capacity at constant pressure (206 K): 228.46 ± 1.4 J/K/mol
- molar heat capacity at constant pressure (208.9 K): 231.14 ± 1.4 J/K/mol
- molar heat capacity at constant pressure (211.8 K): 233.77 ± 1.4 J/K/mol
- molar heat capacity at constant pressure (214.6 K): 235.99 ± 1.4 J/K/mol
- molar heat capacity at constant pressure (217.5 K): 238.64 ± 1.5 J/K/mol
- molar heat capacity at constant pressure (220.5 K): 240.68 ± 1.5 J/K/mol
- molar heat capacity at constant pressure (223.4 K): 243.49 ± 1.5 J/K/mol
- molar heat capacity at constant pressure (226.3 K): 245.79 ± 1.5 J/K/mol
- molar heat capacity at constant pressure (229.1 K): 248.3 ± 1.5 J/K/mol
- molar heat capacity at constant pressure (232 K): 250.4 ± 1.5 J/K/mol
- molar heat capacity at constant pressure (235 K): 253.03 ± 1.6 J/K/mol
- molar heat capacity at constant pressure (238 K): 255.71 ± 1.6 J/K/mol
- molar heat capacity at constant pressure (242.6 K): 259.3 ± 1.6 J/K/mol
- molar heat capacity at constant pressure (245.5 K): 262.07 ± 1.6 J/K/mol
- molar heat capacity at constant pressure (248.3 K): 264.47 ± 1.6 J/K/mol
- molar heat capacity at constant pressure (251.2 K): 266.71 ± 1.6 J/K/mol
- molar heat capacity at constant pressure (254.2 K): 269.22 ± 1.6 J/K/mol
- molar heat capacity at constant pressure (257 K): 270.83 ± 1.7 J/K/mol
- molar heat capacity at constant pressure (259.8 K): 272.78 ± 1.7 J/K/mol
- molar heat capacity at constant pressure (262.7 K): 276.16 ± 1.7 J/K/mol
- molar heat capacity at constant pressure (265.6 K): 277.74 ± 1.7 J/K/mol
- molar heat capacity at constant pressure (268.6 K): 279.79 ± 1.7 J/K/mol
- molar heat capacity at constant pressure (271.6 K): 282.06 ± 1.7 J/K/mol
- molar heat capacity at constant pressure (274.5 K): 284.16 ± 1.7 J/K/mol
- molar heat capacity at constant pressure (277.5 K): 286.12 ± 1.8 J/K/mol
- molar heat capacity at constant pressure (280.4 K): 288.42 ± 1.8 J/K/mol
- molar heat capacity at constant pressure (283.3 K): 290.79 ± 1.8 J/K/mol
- molar heat capacity at constant pressure (286.3 K): 292.92 ± 1.8 J/K/mol
- molar heat capacity at constant pressure (289.2 K): 295.05 ± 1.8 J/K/mol
- molar heat capacity at constant pressure (292 K): 297.35 ± 1.8 J/K/mol
- molar heat capacity at constant pressure (294.9 K): 299.58 ± 1.8 J/K/mol
- molar heat capacity at constant pressure (297.9 K): 301.75 ± 1.8 J/K/mol
- molar heat capacity at constant pressure (300.8 K): 303.71 ± 1.9 J/K/mol
- molar heat capacity at constant pressure (303.6 K): 305.99 ± 1.9 J/K/mol
- molar heat capacity at constant pressure (306.5 K): 308.5 ± 1.9 J/K/mol
- molar heat capacity at constant pressure (309.3 K): 310.54 ± 1.9 J/K/mol
- molar heat capacity at constant pressure (312.2 K): 312.73 ± 1.9 J/K/mol
- molar heat capacity at constant pressure (315.2 K): 314.63 ± 1.9 J/K/mol
- molar heat capacity at constant pressure (318.2 K): 316.73 ± 1.9 J/K/mol
- molar heat capacity at constant pressure (321.2 K): 318.3 ± 1.9 J/K/mol
- molar heat capacity at constant pressure (324.1 K): 320.78 ± 2 J/K/mol
- molar heat capacity at constant pressure (327 K): 322.91 ± 2 J/K/mol
- molar heat capacity at constant pressure (330 K): 325.19 ± 2 J/K/mol
- molar heat capacity at constant pressure (332.9 K): 327.09 ± 2 J/K/mol
- molar heat capacity at constant pressure (335.9 K): 329.01 ± 2 J/K/mol
- molar heat capacity at constant pressure (338.7 K): 330.94 ± 2 J/K/mol
- molar heat capacity at constant pressure (341.6 K): 333.36 ± 2 J/K/mol
- molar heat capacity at constant pressure (344.6 K): 335.34 ± 2 J/K/mol
- molar heat capacity at constant pressure (347.5 K): 337.3 ± 2.1 J/K/mol
- molar heat capacity at constant pressure (350.3 K): 339.28 ± 2.1 J/K/mol
- molar heat capacity at constant pressure (353.2 K): 340.83 ± 2.1 J/K/mol
- molar heat capacity at constant pressure (356.2 K): 342.81 ± 2.1 J/K/mol
- molar heat capacity at constant pressure (359 K): 344.74 ± 2.1 J/K/mol
- molar heat capacity at constant pressure (361.9 K): 346.43 ± 2.1 J/K/mol
- molar heat capacity at constant pressure (364.8 K): 348.25 ± 2.1 J/K/mol
- molar heat capacity at constant pressure (367.6 K): 350.41 ± 2.1 J/K/mol
- molar heat capacity at constant pressure (370.5 K): 352.35 ± 2.1 J/K/mol
- molar heat capacity at constant pressure (373.5 K): 354.08 ± 2.2 J/K/mol
- molar heat capacity at constant pressure (376.4 K): 355.62 ± 2.2 J/K/mol
- molar heat capacity at constant pressure (379.4 K): 358.05 ± 2.2 J/K/mol
- molar heat capacity at constant pressure (382.4 K): 359.77 ± 2.2 J/K/mol
- molar heat capacity at constant pressure (385.3 K): 361.34 ± 2.2 J/K/mol
- molar heat capacity at constant pressure (388.3 K): 363.44 ± 2.2 J/K/mol
- molar heat capacity at constant pressure (390.7 K): 364.99 ± 2.2 J/K/mol
- molar heat capacity at constant pressure (393 K): 366.42 ± 2.2 J/K/mol
- molar heat capacity at constant pressure (395.9 K): 368.64 ± 2.2 J/K/mol
- molar heat capacity at constant pressure (398.9 K): 370.39 ± 2.3 J/K/mol
- molar heat capacity at constant pressure (401.9 K): 371.91 ± 2.3 J/K/mol
